Source: patent US20180094139A1 (priority 2014, published 2018)

Assays:
BlaC = BlaC (Mycobacterium tuberculosis, UniProt P9WKD3); assay type: biochemical
[1] = Stability of fluorogenic probes in MES buffer (spontaneous hydrolysis); assay type: physicochemical; conditions: 0.1 M, pH 6.6, room temperature (22° C.)
[2] = system: E. cloacae with AmpC β-lactamase; assay type: cell-based; conditions: 10^5 c.f.u., probe 10 μM, 3 h incubation
[3] = system: K. pneumoniae with Class A carbapenemase KPC; assay type: cell-based; conditions: 10^5 c.f.u., probe 10 μM, 3 h incubation
[4] = system: β-lactamase-expressing bacteria; assay type: cell-based
[5] = system: penicillinase isolated from Bacillus cereus (Pen); conditions: probe 10 μM, 3 h incubation with diluted Pen
Description: Data were collected in a 384-well plate with a total volume of 25 μL in each well. Fluorescence was measured with excitation at 490 nm and emission at 535 nm. Relative fluorescence represents the difference in fluorescence intensity with and without β-lactamase incubation. […] Error bars are ±SD.

Sequence of BlaC (P9WKD3 35-307 limits assumed): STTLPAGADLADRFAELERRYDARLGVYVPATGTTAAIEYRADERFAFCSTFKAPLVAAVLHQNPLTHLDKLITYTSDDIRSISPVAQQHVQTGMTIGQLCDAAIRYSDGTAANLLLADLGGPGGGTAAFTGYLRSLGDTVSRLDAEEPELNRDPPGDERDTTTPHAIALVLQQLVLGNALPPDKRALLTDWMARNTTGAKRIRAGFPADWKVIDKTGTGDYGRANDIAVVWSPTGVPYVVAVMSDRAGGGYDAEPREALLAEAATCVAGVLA

Compound | catalytic efficiency (kcat/Km) for BlaC over TEM-1 Bla (BlaC) | spontaneous hydrolysis rate [1] [s⁻¹] | fluorescent intensity ratio of AmpC to BlaC (IAmpC/IBlaC) [2] | fluorescent intensity ratio IKPC/IBlaC [3] | fluorescence signal with β-lactamase-expressing bacteria (specificity) [4] | activity towards penicillinase (Pen) [5]
COc1ccc(-c2c3ccc(=O)cc-3oc3cc(OCc4ccc(OCC5=C(C(=O)O)N6C(=O)[C@](NC(=O)Cc7ccccc7)(OC)[C@H]6SC5)cc4)ccc23)c(C)c1 [CDG-OMe] | 8,900 fold | 1.9e-07 | 1/9 | 1/4 | much better selectivity for BlaC over other β-lactamase expressing bacteria | some activity
CO[C@@]1(NC(=O)Cc2ccccc2)C(=O)N2C(C(=O)O)=C(COc3ccc4ccc(=O)oc4c3)C3(CC3)S[C@@H]21 [CDC-OMe-Cp, (6R,7S)-7-methoxy-3-(((2-oxo-2H-chromen-7-yl)oxy)methyl)-7-(2-phenylacetamido)-2-azaspiro[2,1′-cyclopropane]-3-cephem-4-carboxylic acid] | 6.3×10^4 fold |  |  |  |  | 
O=C(Cc1ccccc1)N[C@@H]1C(=O)N2C(C(=O)O)=C(COc3ccc4ccc(=O)oc4c3)C3(CC3)S[C@H]12 [CDC-Cp, (6R,7R)-3-(((2-oxo-2H-chromen-7-yl)oxy)methyl)-7-(2-phenylacetamido)-2-azaspiro[2,1′-cyclopropane]-3-cephem-2-carboxylic acid] | around 10 fold |  |  |  |  | 
COc1ccc(-c2c3ccc(=O)cc-3oc3cc(OCc4ccc(OCC5=C(C(=O)O)N6C(=O)[C@@H](NC(=O)Cc7ccccc7)[C@H]6SC5)cc4)ccc23)c(C)c1 [CDG-1] |  |  |  |  | fluorescent signal turn-on with all bacteria | 
